The values that follow come from ChEMBL document CHEMBL1201862, “PubChem BioAssay data set” (2004).

Experiment in all cases: growth of human tumour cells (NCI), 48 h
Assay [1] concerns BT-549.
Assay [2] deals with CAKI-1.
Assay [3] has as its system COLO 205.
Assay [4] has as its system HCT-15.
For assay [5], the system named is HL-60.
The subject of assay [6] is HOP-62.
The test system of assay [7] is K562.
Assay [8] has as its system KM12.
The test system of assay [9] is MDA-MB-435.
The subject of assay [10] is NCI-H460.
Assay [11] relates to NCI-H522.
In assay [12] the test system is OVCAR-4.
The subject of assay [13] is SF-295.
The subject of assay [14] is SF-539.
Assay [15] deals with SK-MEL-2.
The test system of assay [16] is SR.
Assay [17] deals with TK-10.
Assay [18] relates to UACC-62.
For assay [19], the system named is UO-31.

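Following 48 hours of exposure in 96-well plates, responses at five concentrations were used to interpolate endpoints linearly. Here, GI50 denotes the concentration required for 50% inhibition of growth.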 Active and inactive are the calls of the source. Rule as the data show it: active = GI50 up to about 1.1 µM and inactive = higher. Some results are limits rather than exact numbers.

As to `CC(=O)NNc1nc(-c2ccc([N+](=O)[O-])cc2)c(C#N)c(=O)n1C`, the GI50 in [1] is 1.88 µM (inactive); in assay [2] it was 79.8 µM (inactive); in [3], 44.6 µM (inactive); in [4], 29.3 µM; in [5], 25.9 µM (inactive); in assay [6] it was 26.9 µM (inactive). The GI50 in assay [7] is 24.3 µM (inactive); in assay [8], 54.1 µM (inactive); in assay [9], 50.6 µM (inactive); in assay [10] it was > 100 µM (inactive); in [11], 22.1 µM (inactive); in [12], 20.1 µM (inactive). The GI50 is 47.5 µM (inactive) in [13]; 18.3 µM (inactive) in [14]; > 100 µM (inactive) in assay [15]; 13.9 µM (inactive) in [16]; 24 µM (inactive) in assay [17]; 66.8 µM (inactive) in assay [18]. Moreover, in [19], the GI50 is 37.6 µM (inactive).
As to `CN1CCCN(C)C1c1cc([N+](=O)[O-])ccc1O`, the GI50 was 39.5 µM (inactive) in assay [1]; > 100 µM (inactive) in assay [2]; 56.1 µM (inactive) in [3]; 43.6 µM in [4]; 21.5 µM (inactive) in [5]; 40.7 µM (inactive) in assay [6]. Besides, the GI50 in assay [7] was 39 µM (inactive); in assay [8] it was 36.6 µM (inactive); in assay [9] it was 31.2 µM (inactive); in assay [10], 30.1 µM (inactive); in assay [11] it was 33.9 µM (inactive); in assay [12], 32 µM (inactive). In addition, the GI50 in [13] was 37.3 µM (inactive); in [14] it was 25.2 µM (inactive); in [15] it was 31 µM (inactive); in assay [16], 21.6 µM (inactive); in assay [17] it was 56.1 µM (inactive); in assay [18], 16.6 µM (inactive). The GI50 in [19] is 0.436 µM (active).
`COC(=O)C1=C(C)NC(C)=C(C(=O)OC)C1c1ccc(N=O)cc1`: the GI50 is 8.87 µM (inactive) in assay [1]; 8.3 µM (inactive) in assay [2]; 8.77 µM (inactive) in assay [3]; 9.53 µM in [4]; 1.3 µM (inactive) in assay [5]; 23.8 µM (inactive) in [6]. Besides, the GI50 in assay [7] is 1.07 µM (active); in assay [8] it was 18.5 µM (inactive); in assay [9], 16.2 µM (inactive); in assay [10], 18.9 µM (inactive); in [11], 1.15 µM (inactive); in [12], 3.14 µM (inactive). The GI50 in assay [13] is 24.4 µM (inactive); in assay [14], 17.7 µM (inactive); in assay [15], 13.7 µM (inactive); in assay [16], 0.776 µM (active); in assay [17], 15.4 µM (inactive); in assay [18] it was 15.3 µM (inactive). Further, the GI50 in assay [19] is 13.2 µM (inactive).
Regarding `O=C(O)C1=NN(c2ccc(S(=O)(=O)O)cc2)C2(C1)C(Cl)C(=O)N2c1nc2ccccc2s1` (configuration not stated), the GI50 in assay [1] is 17.4 µM (inactive); in assay [2], 15.4 µM (inactive); in [3], 18.6 µM (inactive); in assay [4], 20.6 µM; in assay [5], 16.2 µM (inactive); in assay [6] it was 12.5 µM (inactive). Besides, the GI50 was 22.1 µM (inactive) in assay [7]; 14.9 µM (inactive) in [8]; 16.2 µM (inactive) in assay [9]; 16 µM (inactive) in [10]; 10.7 µM (inactive) in assay [11]; 16.4 µM (inactive) in [12]. The GI50 is 15.6 µM (inactive) in [13]; 4.4 µM (inactive) in assay [14]; 15.6 µM (inactive) in assay [15]; 7.82 µM (inactive) in [16]; 18 µM (inactive) in assay [17]; 14.4 µM (inactive) in assay [18]. In assay [19], the GI50 is 8.3 µM (inactive).
Regarding `CC(=O)CCCCn1c(=O)c2c(nc(Br)n2C)n(C)c1=O`, the GI50 was > 100 µM (inactive) in assay [1]; 1.82 µM (inactive) in assay [2]; > 100 µM (inactive) in assay [3]; above 100 µM in assay [4]; > 100 µM (inactive) in [5]; > 100 µM (inactive) in assay [6]. The GI50 was 62.1 µM (inactive) in assay [7]; > 100 µM (inactive) in [8]; > 100 µM (inactive) in assay [9]; > 100 µM (inactive) in assay [10]; 10.4 µM (inactive) in assay [11]; > 100 µM (inactive) in [12]. The GI50 in [13], in [14], in assay [15], in assay [16], in assay [17] and in assay [18] was > 100 µM (inactive) in each case. Also, in assay [19], the GI50 is 32.4 µM (inactive).
With `OC(c1cc(-c2ccccc2)nc2c1ccc1ccccc12)C1CCCCN1` (configuration not stated), the GI50 in assay [1] is 3.97 µM (inactive); in [2], 1.91 µM (inactive); in assay [3] it was 1.95 µM (inactive); in [4], 2.12 µM; in assay [5], 0.855 µM (active); in [6] it was 1.67 µM (inactive). Also, the GI50 was 2.54 µM (inactive) in assay [7]; 1.86 µM (inactive) in assay [8]; 1.83 µM (inactive) in assay [9]; 1.79 µM (inactive) in assay [10]; 1.58 µM (inactive) in assay [11]; 1.96 µM (inactive) in [12]. Further, the GI50 in assay [13] is 1.97 µM (inactive); in [14] it was 1.92 µM (inactive); in [15], 1.79 µM (inactive); in assay [16], 1.18 µM (inactive); in [17], 1.75 µM (inactive); in assay [18], 1.85 µM (inactive). For the same compound, in [19], the GI50 is 1.02 µM (active).
As to `Nc1nc(Sc2ccc([N+](=O)[O-])c3nonc23)c2nc[nH]c2n1`, the GI50 was 2.07 µM (inactive) in [1]; 0.36 µM (active) in assay [2]; 1.61 µM (inactive) in assay [3]; 1.89 µM in assay [4]; 1.71 µM (inactive) in [5]; 0.561 µM (active) in [6]. The GI50 in assay [7] is 0.369 µM (active); in [8] it was 3.21 µM (inactive); in [9], 0.59 µM (active); in assay [10] it was 0.627 µM (active); in assay [11], 0.733 µM (active); in [12] it was 1.14 µM (inactive). The GI50 was 0.701 µM (active) in [13]; 1.53 µM (inactive) in assay [14]; 1.06 µM (active) in [15]; 0.0822 µM (active) in assay [16]; 0.687 µM (active) in [17]; 0.43 µM (active) in [18]. Moreover, the GI50 in [19] was 0.716 µM (active).
In the case of `COc1ccc2c(c1)CN1C(=N2)CSC1c1cc([N+](=O)[O-])ccc1Cl` (configuration not stated), the GI50 is 22.5 µM (inactive) in [1]; 27.3 µM (inactive) in assay [2]; 30.8 µM (inactive) in assay [3]; 30.6 µM in [4]; 16.8 µM (inactive) in [5]; 75.2 µM (inactive) in assay [6]. The GI50 in assay [7] is 10.8 µM (inactive); in [8], 28.1 µM (inactive); in assay [9], 19.4 µM (inactive); in [10] it was 31.9 µM (inactive); in [11], 32.3 µM (inactive); in assay [12], 39.1 µM (inactive). The GI50 in [13] is 39.4 µM (inactive); in assay [14], 28.5 µM (inactive); in assay [15], 31.1 µM (inactive); in assay [16], 33.8 µM (inactive); in assay [17] it was > 100 µM (inactive); in assay [18] it was 23.2 µM (inactive). In addition, the GI50 in [19] was 41.1 µM (inactive).
